In ChEMBL document CHEMBL1201862, “PubChem BioAssay data set” (2004):
Calls of active or inactive are those of the source.

Experiments:
[1] = biological target: Dual specificity protein phosphatase 3 (Homo sapiens, UniProt P51452); assay: SAR VHR1 Fluorescent Assay for In Vitro dose response studies Set 2. [Related pubchem assays (depositor defined):AID1654, AID1661, AID1878]; type: functional
[2] = biological target: T1, Tyrosine-protein phosphatase non-receptor type 7 (Homo sapiens, UniProt P35236); assay: SAR analysis of chemical inhibitors of HePTP using a Fluorescent assay - Set 2. [Related pubchem assays (depositor defined):AID1059, AID1077, AID1661, AID2085, AID521]; type: functional
T1 sequence (P35236 whole entry): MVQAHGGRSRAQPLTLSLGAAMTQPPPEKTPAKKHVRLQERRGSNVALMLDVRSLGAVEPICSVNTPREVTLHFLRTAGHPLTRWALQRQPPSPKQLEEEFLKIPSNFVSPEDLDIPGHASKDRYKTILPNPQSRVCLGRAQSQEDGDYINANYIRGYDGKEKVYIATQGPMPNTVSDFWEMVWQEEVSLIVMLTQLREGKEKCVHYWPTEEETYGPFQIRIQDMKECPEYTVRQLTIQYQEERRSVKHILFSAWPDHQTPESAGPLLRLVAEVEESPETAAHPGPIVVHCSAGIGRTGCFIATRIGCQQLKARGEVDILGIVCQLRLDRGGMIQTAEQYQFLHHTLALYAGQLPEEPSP

[3] = Luminescence Cell-Based Dose Retest to Confirm Activators of 5'UTR Stem-Loop Driven Alpha-Synuclein mRNA Translation in H4 Neuroglioblastoma Cells. [Related pubchem assays (depositor defined):AID1813, AID1829]; type: functional
[4] = Luminescence Cell-Based Dose Response HTS to Identify Activators of 5'UTR Stem-Loop Driven Prion Protein mRNA Translation in H4-C Neuroglioblastoma Cells. [Related pubchem assays: 1829 (Project Summary), 1814 (Primary HTS)]; type: functional
Cytochrome P450 2C9 = Cytochrome P450 2C9 (Homo sapiens, UniProt P11712)
[5] = HEK-293T viability loss after treatment – luminescence, T-cell screen hits, cytotoxicity control for TCR NF-kB inhibitor project, dose response (AID 489026); type: functional, cell-based;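 further: cells exposed to compound about 14 hours before the viability readout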
[6] = Luminescence Cell-Based Dose HTS Response to Identify Inhibitors of 5'UTR Stem-Loop Driven Prion Protein mRNA Translation in H4-C Neuroglioblastoma Cells. [Related pubchem assays (depositor defined):AID1814, AID1827]; type: functional
[7] = Luminescence Cell-Based Dose Response HTS to Identify Inhibitors of 5'UTR Stem-Loop Driven Prion Protein mRNA Translation in H4 Neuroglioblastoma Cells. [Related pubchem assays: 1827 (Project Summary), 1813 (Primary HTS)]; type: functional
[8] = alpha-synuclein stem-loop luciferase translation blockers – H4 neuroglioma cells, luminescence, confirmation (AID 1988); type: functional, cell-based
[9] = Luminescence Cell-Based Dose Confirmation HTS to Identify Inhibitors of 5'UTR Stem-Loop Driven Alpha-Synuclein mRNA Translation in H4 Neuroglioblastoma Cells. [Related pubchem assays: 1827 (Project Summary), 1813 (Primary HTS)]; type: functional
[10] = Luminescence Cell-Based Dose Response HTS to Identify Activators of Luciferase Translation or Activity in H4-C Neuroglioblastoma Cells. [Related pubchem assays: 1829 (Project Summary), 1814 (Primary HTS)]; type: functional
[11] = luciferase reporter signal suppression in cells – H4 neuroglioma cells, luminescence, dose response (AID 1990); type: functional, cell-based
[12] = Luminescence Cell-Based Dose Response HTS to Identify Inhibitors of Luciferase Translation or Activity in H4-C Neuroglioblastoma Cells. [Related pubchem assays: 1813 (Primary HTS), 1827 (Project Summary)]; type: functional
[13] = biological target: Sphingosine 1-phosphate receptor 4 (Homo sapiens, UniProt O95977); assay: Late-stage fluorescence dose response cell-based assay to identify agonists of the Sphingosine 1-Phosphate Receptor 4 (S1P4): purchased compounds EC50. [Related pubchem assays (depositor defined):AID1509, AID1523, AID1563, AID1686, AID1701, AID1801]; type: functional
[14] = biological target: T2, High affinity choline transporter 1 (Homo sapiens, UniProt Q9GZV3); assay: human choline transporter blockers, potency – cell-based, 10-point CRC, membrane potential dye, dose response (AID 588401); type: functional;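 further: membrane potential dye fluorescence of choline-evoked depolarization via CHT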
T2 sequence (Q9GZV3 whole entry): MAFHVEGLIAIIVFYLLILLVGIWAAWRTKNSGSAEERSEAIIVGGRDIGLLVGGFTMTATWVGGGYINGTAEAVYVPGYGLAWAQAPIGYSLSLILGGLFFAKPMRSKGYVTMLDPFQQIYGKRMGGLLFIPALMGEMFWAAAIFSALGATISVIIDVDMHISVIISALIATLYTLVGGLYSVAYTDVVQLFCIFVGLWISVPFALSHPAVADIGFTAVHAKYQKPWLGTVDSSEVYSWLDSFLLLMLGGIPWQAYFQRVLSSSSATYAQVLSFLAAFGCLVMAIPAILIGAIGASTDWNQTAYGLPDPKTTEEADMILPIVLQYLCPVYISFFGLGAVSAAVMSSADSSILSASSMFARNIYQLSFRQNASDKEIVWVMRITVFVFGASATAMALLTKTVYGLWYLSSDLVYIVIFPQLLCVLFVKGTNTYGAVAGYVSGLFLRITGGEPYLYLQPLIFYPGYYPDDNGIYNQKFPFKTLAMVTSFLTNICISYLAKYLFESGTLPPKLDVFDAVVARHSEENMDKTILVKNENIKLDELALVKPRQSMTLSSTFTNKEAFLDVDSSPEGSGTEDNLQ

[15] = biological target: T2, High affinity choline transporter 1; assay: human choline transporter blockers, potency – cell-based, 5-point CRC, membrane potential dye, dose response (AID 504840); type: functional
Troponin, cardiac muscle = Troponin, cardiac muscle (Homo sapiens, UniProt P19429+P45379+P63316); assay: Fluorescence-based biochemical high throughput dose response assay for activators of the calcium sensitivity of cardiac Regulated Thin Filaments (RTF). [Related pubchem assays (depositor defined):AID493008, AID493018, AID504382, AID504383]; type: protein-complex assay
[16] = biological target: T3, Short transient receptor potential channel 4 (Mus musculus, UniProt Q9QUQ5); assay: calcium entry via TRPC4 opening agents – cell-based, HEK293 TRPC4/mu-opioid, Fluo-4 calcium, dose response (AID 434937); type: functional
T3 sequence (Q9QUQ5 whole entry): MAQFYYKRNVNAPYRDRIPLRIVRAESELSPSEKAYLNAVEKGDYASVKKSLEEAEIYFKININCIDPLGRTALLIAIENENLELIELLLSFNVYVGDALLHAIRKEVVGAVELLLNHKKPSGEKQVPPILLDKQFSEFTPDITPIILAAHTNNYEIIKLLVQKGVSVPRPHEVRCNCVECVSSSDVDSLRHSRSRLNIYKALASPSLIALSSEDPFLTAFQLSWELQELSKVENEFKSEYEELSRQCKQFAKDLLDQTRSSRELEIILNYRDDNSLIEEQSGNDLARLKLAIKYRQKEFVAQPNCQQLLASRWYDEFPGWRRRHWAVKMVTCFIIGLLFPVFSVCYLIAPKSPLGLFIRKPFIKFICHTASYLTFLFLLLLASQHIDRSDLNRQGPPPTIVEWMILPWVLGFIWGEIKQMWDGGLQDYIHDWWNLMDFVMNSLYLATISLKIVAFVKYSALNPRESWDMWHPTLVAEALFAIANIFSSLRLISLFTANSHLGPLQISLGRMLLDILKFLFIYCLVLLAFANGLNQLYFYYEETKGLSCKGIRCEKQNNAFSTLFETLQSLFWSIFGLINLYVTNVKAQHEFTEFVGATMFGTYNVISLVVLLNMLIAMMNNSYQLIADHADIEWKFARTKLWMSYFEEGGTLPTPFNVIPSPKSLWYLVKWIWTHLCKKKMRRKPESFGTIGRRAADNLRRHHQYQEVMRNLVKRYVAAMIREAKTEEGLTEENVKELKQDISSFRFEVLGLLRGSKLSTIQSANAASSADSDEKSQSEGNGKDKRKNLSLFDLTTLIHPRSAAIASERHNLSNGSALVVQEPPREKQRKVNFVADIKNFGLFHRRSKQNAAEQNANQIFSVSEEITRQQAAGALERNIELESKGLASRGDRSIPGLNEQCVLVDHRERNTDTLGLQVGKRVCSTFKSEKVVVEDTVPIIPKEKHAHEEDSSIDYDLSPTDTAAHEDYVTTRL

Cytochrome P450 2C9, sequence (P11712 whole entry): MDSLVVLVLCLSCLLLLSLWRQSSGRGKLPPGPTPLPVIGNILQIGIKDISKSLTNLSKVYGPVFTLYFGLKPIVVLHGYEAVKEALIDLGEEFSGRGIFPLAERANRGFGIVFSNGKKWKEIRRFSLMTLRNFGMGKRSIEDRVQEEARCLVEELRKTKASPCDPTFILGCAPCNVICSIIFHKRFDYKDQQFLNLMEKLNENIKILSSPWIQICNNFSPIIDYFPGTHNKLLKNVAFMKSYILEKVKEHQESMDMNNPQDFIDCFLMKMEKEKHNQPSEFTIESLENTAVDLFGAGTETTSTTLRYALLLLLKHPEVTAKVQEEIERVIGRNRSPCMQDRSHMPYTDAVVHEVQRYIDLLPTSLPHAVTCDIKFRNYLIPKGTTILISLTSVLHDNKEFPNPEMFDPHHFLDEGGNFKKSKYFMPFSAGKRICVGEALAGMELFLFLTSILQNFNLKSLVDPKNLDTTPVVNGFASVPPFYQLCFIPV
Sphingosine 1-phosphate receptor 4, sequence (O95977 whole entry): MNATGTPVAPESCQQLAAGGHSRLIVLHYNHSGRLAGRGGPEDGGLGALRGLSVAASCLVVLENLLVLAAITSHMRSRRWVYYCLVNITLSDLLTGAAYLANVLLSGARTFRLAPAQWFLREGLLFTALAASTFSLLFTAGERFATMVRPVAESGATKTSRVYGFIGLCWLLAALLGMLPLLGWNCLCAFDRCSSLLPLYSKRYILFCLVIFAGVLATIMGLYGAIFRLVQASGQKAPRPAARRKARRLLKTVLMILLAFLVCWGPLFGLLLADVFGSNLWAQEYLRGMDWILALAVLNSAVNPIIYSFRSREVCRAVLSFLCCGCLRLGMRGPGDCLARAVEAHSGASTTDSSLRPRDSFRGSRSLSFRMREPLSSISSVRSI
Dual specificity protein phosphatase 3, sequence (P51452 whole entry): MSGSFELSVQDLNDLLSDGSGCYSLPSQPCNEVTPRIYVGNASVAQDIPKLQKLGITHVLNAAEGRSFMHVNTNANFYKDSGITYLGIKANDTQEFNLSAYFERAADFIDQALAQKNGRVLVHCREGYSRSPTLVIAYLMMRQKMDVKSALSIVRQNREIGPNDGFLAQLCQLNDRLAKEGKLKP

COc1cc(C(=S)NCc2ccc(F)cc2)ccc1O
IC50 [1]: 99.5 µM (inactive)
IC50 [2]: > 100 µM (inactive)

O=C(COc1ccccc1-c1ccccc1)N/N=C/c1cccc2ccccc12
EC50 [3]: 1.84 µM (inconclusive)
EC50 [4]: 0.695 µM (inconclusive)
AC50 (Cytochrome P450 2C9): 20 µM (inconclusive)
IC50 [5]: > 80 µM (inactive)
EC50 [6]: 1.76 µM (active)
EC50 [7]: > 120 µM (not active)
EC50 [8]: < 0.195 µM (active)
EC50 [9]: 1.74 µM (active)
EC50 [10]: 0.921 µM (inconclusive)
EC50 [11]: 11.5 µM (active)
EC50 [12]: 0.85 µM (active)

Cc1nn(Cc2ccccc2)c(Cl)c1C(=O)OC(C)C(=O)Nc1nc(-c2ccccc2)cs1 (stereo not drawn)
EC50 [13]: > 50 µM (inactive)

CC(=O)OCC[N+](C)(C)C [ACETYLCHOLINE CHLORIDE]
IC50 [14]: 0.566 µM (active)
IC50 [15]: 6.26 µM (active)
EC50 (Troponin, cardiac muscle): > 71.4 µM (inactive)
EC50 [16]: 0.421 µM (active)
